Measurements: patent publication US20030104507A1, “Method for detection of ATP” (priority 2001, published 2003)

Columns and labels:
[1] = target: T1, LucPpy (Photinus pyralis, UniProt P08659); assay: Stability of reagent composition with LucPpy and detergent (RT, pH 7.0); type: biochemical; conditions: LucPpy
T1 construct: purchased Promega E170A
In short: (§1)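 Reagent with 50 μg/ml luciferase, luciferin, MgSO4, buffer and detergent at varying concentrations held at about 23° C; enzyme added just before first read. At timepoints, aliquots mixed 1:1 with media containing ATP and luminescence read immediately (0.5 s/well, triplicate); reaction half-lives and percent of original luminescence derived.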

[2] = tested on: LucPpe2m146; assay: Stability of reagent composition with LucPpe2m146 and detergent (RT, pH 7.0); type: biochemical, Photuris pennsylvanica
In short: as §1

Q: For `C[C@H](CCC(=O)[O-])[C@H]1CC[C@H]2[C@@H]3CC[C@@H]4C[C@H](O)CC[C@]4(C)[C@H]3C[C@H](O)[C@]12C.[Na+]` [Deoxycholate, sodium deoxycholate], which “Average Relative Light Units” value ([1]; 0.02%, 0.75 min (head r32)) is on record?
A: 3199.250 rlu

Q: What about the “Percent of Luminescence Remaining” value ([1]; 0.02%, 0.75 min (times of Table I r32)) of the same compound?
A: 100.00%

Q: And the “Average Relative Light Units” value ([1]; 0.02%, 38 min (head r32))?
A: 2844.010 rlu

Q: What about the “Percent of Luminescence Remaining” value ([1]; 0.02%, 38 min (times of Table I r32)) of the same compound?
A: 88.90%

Q: What about the “Average Relative Light Units” value ([1]; 0.02%, 70 min (head r32)) of the same compound?
A: 2626.260 rlu

Q: And the “Percent of Luminescence Remaining” value ([1]; 0.02%, 70 min (times of Table I r32))?
A: 82.09%

Q: What about the “Average Relative Light Units” value ([1]; 0.02%, 94 min (head r32)) of the same compound?
A: 2496.570 rlu

Q: And the “Percent of Luminescence Remaining” value ([1]; 0.02%, 94 min (times of Table I r32))?
A: 78.04%

Q: What about the “Average Relative Light Units” value ([1]; 0.02%, 122 min (head r32)) of the same compound?
A: 2314.910 rlu

Q: What about the “Percent of Luminescence Remaining” value ([1]; 0.02%, 122 min (times of Table I r32)) of the same compound?
A: 72.3%

Q: And the “Average Relative Light Units” value ([1]; 0.1%, 0.75 min (head r18))?
A: 19.771 rlu

Q: What about the “Percent of Luminescence Remaining” value ([1]; 0.1%, 0.75 min (times of Table I r18)) of the same compound?
A: 100.00%

Q: What about the “Average Relative Light Units” value ([1]; 0.1%, 10 min (head r18)) of the same compound?
A: 0.180 rlu

Q: And the “Percent of Luminescence Remaining” value ([1]; 0.1%, 10 min (times of Table I r18))?
A: 0.91%

Q: What about the “Average Relative Light Units” value ([1]; 0.1%, 36 min (head r18)) of the same compound?
A: 0.026 rlu

Q: What about the “Percent of Luminescence Remaining” value ([1]; 0.1%, 36 min (times of Table I r18)) of the same compound?
A: 0.13%

Q: What about the “Average Relative Light Units” value ([1]; 0.5%, 0.75 min (head r5)) of the same compound?
A: 4.801 rlu

Q: What about the “Percent of Luminescence Remaining” value ([1]; 0.5%, 0.75 min (times of Table I r5)) of the same compound?
A: 100.00%

Q: What about the “Average Relative Light Units” value ([1]; 0.5%, 21 min (head r5)) of the same compound?
A: 0.012 rlu

Q: And the “Percent of Luminescence Remaining” value ([1]; 0.5%, 21 min (times of Table I r5))?
A: 0.25%

Q: And the “Average Relative Light Units” value ([1]; 0.5%, 39 min (head r5))?
A: 0.007 rlu

Q: And the “Percent of Luminescence Remaining” value ([1]; 0.5%, 39 min (times of Table I r5))?
A: 0.15%

Q: What about the “Average Relative Light Units” value ([2]; LucPpe2m146, 0.02%, 1.0 min (head r67)) of the same compound?
A: 24307.30 rlu

Q: And the “Percent of Luminescence Remaining” value ([2]; LucPpe2m146, 0.02%, 1.0 min (times of Table I r67))?
A: 100.00%

Q: And the “Average Relative Light Units” value ([2]; LucPpe2m146, 0.02%, 34 min (head r67))?
A: 24639.00 rlu

Q: What about the “Percent of Luminescence Remaining” value ([2]; LucPpe2m146, 0.02%, 34 min (times of Table I r67)) of the same compound?
A: 101.36%

Q: What about the “Average Relative Light Units” value ([2]; LucPpe2m146, 0.02%, 65 min (head r67)) of the same compound?
A: 24717.97 rlu

Q: What about the “Percent of Luminescence Remaining” value ([2]; LucPpe2m146, 0.02%, 65 min (times of Table I r67)) of the same compound?
A: 101.69%

Q: What about the “Average Relative Light Units” value ([2]; LucPpe2m146, 0.02%, 115 min (head r67)) of the same compound?
A: 23158.37 rlu

Q: And the “Percent of Luminescence Remaining” value ([2]; LucPpe2m146, 0.02%, 115 min (times of Table I r67))?
A: 95.27%

Q: And the “Average Relative Light Units” value ([2]; LucPpe2m146, 0.02%, 175 min (head r67))?
A: 24655.43 rlu

Q: What about the “Percent of Luminescence Remaining” value ([2]; LucPpe2m146, 0.02%, 175 min (times of Table I r67)) of the same compound?
A: 101.43%

Q: What about the “Average Relative Light Units” value ([2]; LucPpe2m146, 0.02%, 238 min (head r67)) of the same compound?
A: 24320.6 rlu

Q: And the “Percent of Luminescence Remaining” value ([2]; LucPpe2m146, 0.02%, 238 min (times of Table I r67))?
A: 100.05%

Q: What about the “Average Relative Light Units” value ([2]; LucPpe2m146, 0.02%, 286 min (head r67)) of the same compound?
A: 24303.9 rlu

Q: What about the “Percent of Luminescence Remaining” value ([2]; LucPpe2m146, 0.02%, 286 min (times of Table I r67)) of the same compound?
A: 99.99%

Q: What about the “Average Relative Light Units” value ([2]; LucPpe2m146, 0.1%, 1.0 min (head r54)) of the same compound?
A: 5150.43 rlu

Q: And the “Percent of Luminescence Remaining” value ([2]; LucPpe2m146, 0.1%, 1.0 min (times of Table I r54))?
A: 100.00%

Q: And the “Average Relative Light Units” value ([2]; LucPpe2m146, 0.1%, 34 min (head r54))?
A: 5031.12 rlu

Q: And the “Percent of Luminescence Remaining” value ([2]; LucPpe2m146, 0.1%, 34 min (times of Table I r54))?
A: 97.68%

Q: And the “Average Relative Light Units” value ([2]; LucPpe2m146, 0.1%, 65 min (head r54))?
A: 6855.67 rlu

Q: And the “Percent of Luminescence Remaining” value ([2]; LucPpe2m146, 0.1%, 65 min (times of Table I r54))?
A: 133.11%

Q: And the “Average Relative Light Units” value ([2]; LucPpe2m146, 0.1%, 115 min (head r54))?
A: 6340.45 rlu

Q: And the “Percent of Luminescence Remaining” value ([2]; LucPpe2m146, 0.1%, 115 min (times of Table I r54))?
A: 123.11%

Q: What about the “Average Relative Light Units” value ([2]; LucPpe2m146, 0.1%, 175 min (head r54)) of the same compound?
A: 7347.09 rlu

Q: And the “Percent of Luminescence Remaining” value ([2]; LucPpe2m146, 0.1%, 175 min (times of Table I r54))?
A: 142.65%

Q: And the “Average Relative Light Units” value ([2]; LucPpe2m146, 0.1%, 238 min (head r54))?
A: 6801.23 rlu

Q: And the “Percent of Luminescence Remaining” value ([2]; LucPpe2m146, 0.1%, 238 min (times of Table I r54))?
A: 132.05%

Q: What about the “Average Relative Light Units” value ([2]; LucPpe2m146, 0.1%, 286 min (head r54)) of the same compound?
A: 7472.54 rlu

Q: What about the “Percent of Luminescence Remaining” value ([2]; LucPpe2m146, 0.1%, 286 min (times of Table I r54)) of the same compound?
A: 145.09%

Q: What about the “Average Relative Light Units” value ([2]; LucPpe2m146, 0.5%, 15 min (head r41)) of the same compound?
A: 45.977 rlu

Q: And the “Percent of Luminescence Remaining” value ([2]; LucPpe2m146, 0.5%, 15 min (times of Table I r41))?
A: 100.00%

Q: And the “Average Relative Light Units” value ([2]; LucPpe2m146, 0.5%, 72 min (head r41))?
A: 229.874 rlu

Q: What about the “Percent of Luminescence Remaining” value ([2]; LucPpe2m146, 0.5%, 72 min (times of Table I r41)) of the same compound?
A: 499.98%

Q: What about the “Average Relative Light Units” value ([2]; LucPpe2m146, 0.5%, 124 min (head r41)) of the same compound?
A: 2059.397 rlu

Q: What about the “Percent of Luminescence Remaining” value ([2]; LucPpe2m146, 0.5%, 124 min (times of Table I r41)) of the same compound?
A: 4479.22%

Q: And the “Average Relative Light Units” value ([2]; LucPpe2m146, 0.5%, 190 min (head r41))?
A: 1414.397 rlu

Q: And the “Percent of Luminescence Remaining” value ([2]; LucPpe2m146, 0.5%, 190 min (times of Table I r41))?
A: 3076.34%

Q: And the “Average Relative Light Units” value ([2]; LucPpe2m146, 0.5%, 251 min (head r41))?
A: 1342.963 rlu

Q: What about the “Percent of Luminescence Remaining” value ([2]; LucPpe2m146, 0.5%, 251 min (times of Table I r41)) of the same compound?
A: 2920.97%
